Laboratory results as given in US4393225A, “AI-77 Compounds and pharmaceutically acceptable salts thereof” (Asahi Kasei Kogyo Kabushiki Kaisha, priority 1979, dated 1983).

These molecules were tested on ulcer (assay: Anti-ulcer test (restraint and water immersion ulcer in rats, i.p.)). Conditions: Rattus norvegicus, ip, read-out: % Inhibition of Ulcer.
Format: in vivo, Male Wistar rats
Protocol: The anti-ulcer and anti-edema activity of the compounds was evaluated in efficacy tests described below.
Male Wistar rats weighing about 150 g on average were not fed for 24 hours before the test. Then a solution or suspension of a predetermined concentration of the test compound in physiological saline was administered to them intraperitoneally. One hour after the administration,each rat was restrained in a net cage and submerged in a water both (21° C.) from the tail to xiphistrenun for 6 hours. Test animals were then killed (by dislocation of the cervical vertebrae), the stomach was removed and incised along the curvatura ventriculi major, and the inside wall of the stomach was pathologically examined under microscopic observation. Rats in which the occurrence of an ulceration was substantially not observed were rated O, while others were rated 0.5, 1, 2 or 3, depending on the severity of the ulcer development. The percent inhibition of ulcer was calculated by the following formula: [formula]
`CSC(C)(C)CC(=O)NC1CC(=O)OC1C(O)C(=O)NC(CC(C)C)C1Cc2cccc(O)c2C(=O)O1` (stereo not shown) [IIIa-1-82] was tested, and the inhibition in vivo at 50 mg/kg was 66%.

Same assay, conditions: Rattus norvegicus, ip; 50 mg/kg i.p.; read-out: % Inhibition of Ulcer
Molecule `CC(C)CC(NC(=O)C(O)C1OC(=O)CC1NC(=O)Cn1cnnn1)C1Cc2cccc(O)c2C(=O)O1` (stereo not shown) [IIIa-1-75] has an inhibition in vivo at 50 mg/kg of 66%.
With `CCCCCc1ccc(C(=O)NC2CC(=O)OC2C(O)C(=O)NC(CC(C)C)C2Cc3cccc(O)c3C(=O)O2)cc1` (stereo not shown) [IIIa-1-76] the inhibition in vivo at 50 mg/kg was 66%.
`CCCC=Cc1ccc(C(=O)NC2CC(=O)OC2C(O)C(=O)NC(CC(C)C)C2Cc3cccc(O)c3C(=O)O2)cc1` (stereo not shown) [IIIa-1-77] gave an inhibition in vivo at 50 mg/kg of 66%.
`CC(C)CC(NC(=O)C(O)C1OC(=O)CC1NC(=O)CCCCCCCCCO)C1Cc2cccc(O)c2C(=O)O1` (stereo not shown) [IIIa-1-78] gave an inhibition in vivo at 50 mg/kg of 66%.
Molecule `CC(C)CC(NC(=O)C(O)C1OC(=O)CC1NC(=O)CC1CC1)C1Cc2cccc(O)c2C(=O)O1` (stereo not shown) [IIIa-1-79] has an inhibition in vivo at 50 mg/kg of 66%.
Work on `CC(Br)=C(C)C(=O)NC1CC(=O)OC1C(O)C(=O)NC(CC(C)C)C1Cc2cccc(O)c2C(=O)O1` (stereo not shown) [IIIa-1-80] yielded an inhibition in vivo at 50 mg/kg of 66%.
With `CC(C)=CC(=O)NC1CC(=O)OC1C(O)C(=O)NC(CC(C)C)C1Cc2cccc(O)c2C(=O)O1` (stereo not shown) [IIIa-1-81] the inhibition in vivo at 50 mg/kg was 66%.
`COC(C)(C)CC(=O)NC1CC(=O)OC1C(O)C(=O)NC(CC(C)C)C1Cc2cccc(O)c2C(=O)O1` (stereo not shown) [IIIa-1-83] was tested, and the inhibition in vivo at 50 mg/kg was 66%.
Molecule `CC(C)CC(NC(=O)C(OC(=O)C(Cl)(Cl)Cl)C1OC(=O)CC1NC(=O)C(Cl)(Cl)Cl)C1Cc2cccc(O)c2C(=O)O1` (stereo not shown) [IIIa-2-1] has an inhibition in vivo at 50 mg/kg of 44%.
`CC(=O)NC1CC(=O)OC1C(OC(C)=O)C(=O)NC(CC(C)C)C1Cc2cccc(O)c2C(=O)O1` (stereo not shown) [IIIa-2-2] showed an inhibition in vivo at 50 mg/kg of 44%.
Work on `CC(=O)OC(C(=O)NC(CC(C)C)C1Cc2cccc(O)c2C(=O)O1)C1OC(=O)CC1NC(=O)CC(C)C` (stereo not shown) [IIIa-2-3] yielded an inhibition in vivo at 50 mg/kg of 44%.
In the case of `CCCCCCCCCCCCCCCCCC(=O)NC1CC(=O)OC1C(OC(C)=O)C(=O)NC(CC(C)C)C1Cc2cccc(O)c2C(=O)O1` (stereo not shown) [IIIa-2-4], the inhibition in vivo at 50 mg/kg is reported as 33%.
Molecule `CCCCCCCCC=CCCCCCCCC(=O)NC1CC(=O)OC1C(OC(C)=O)C(=O)NC(CC(C)C)C1Cc2cccc(O)c2C(=O)O1` (stereo not shown) [IIIa-2-5] has an inhibition in vivo at 50 mg/kg of 33%.
For `CC(=O)OC(C(=O)NC(CC(C)C)C1Cc2cccc(O)c2C(=O)O1)C1OC(=O)CC1NC(=O)C1CCCO1` (stereo not shown) [IIIa-2-6], the inhibition in vivo at 50 mg/kg was 44%.
With `CC(=O)OC(C(=O)NC(CC(C)C)C1Cc2cccc(O)c2C(=O)O1)C1OC(=O)CC1NC(=O)c1ccc(C)cc1` (stereo not shown) [IIIa-2-8] the inhibition in vivo at 50 mg/kg was 44%.
In the case of `CC(=O)OC(C(=O)NC(CC(C)C)C1Cc2cccc(O)c2C(=O)O1)C1OC(=O)CC1NC(=O)c1ccc(OCCC(C)C)cc1` (stereo not shown) [IIIa-2-9], the inhibition in vivo at 50 mg/kg is reported as 33%.
Work on `CCC(=O)OC(C(=O)NC(CC(C)C)C1Cc2cccc(O)c2C(=O)O1)C1OC(=O)CC1NC(C)=O` (stereo not shown) [IIIa-2-10] yielded an inhibition in vivo at 50 mg/kg of 44%.
With `CCCC(=O)NC1CC(=O)OC1C(OC(=O)CCC)C(=O)NC(CC(C)C)C1Cc2cccc(O)c2C(=O)O1` (stereo not shown) [IIIa-2-11] the inhibition in vivo at 50 mg/kg was 33%.
In the case of `CCC(=O)OC(C(=O)NC(CC(C)C)C1Cc2cccc(O)c2C(=O)O1)C1OC(=O)CC1NC(=O)C(Cl)(Cl)Cl` (stereo not shown) [IIIa-2-12], the inhibition in vivo at 50 mg/kg is reported as 44%.
`CC(=O)NC1CC(=O)OC1C(OC(C)=O)C(=O)NC(CC(C)C)C1Cc2cccc(OC(C)=O)c2C(=O)O1` (stereo not shown) [IIIa-3-1] gave an inhibition in vivo at 50 mg/kg of 33%.
`CCC(=O)OC(C(=O)NC(CC(C)C)C1Cc2cccc(OC(=O)C(C)C)c2C(=O)O1)C1OC(=O)CC1NC(C)=O` (stereo not shown) [IIIa-3-2] gave an inhibition in vivo at 50 mg/kg of 33%.
For `CC(=O)Oc1cccc2c1C(=O)OC(C(CC(C)C)NC(=O)C(OC(C)=O)C1OC(=O)CC1NC(=O)CC(C)C)C2` (stereo not shown) [IIIa-3-3], the inhibition in vivo at 50 mg/kg was 33%.
For `CCCCCCCCCCCCCCCCCC(=O)NC1CC(=O)OC1C(OC(C)=O)C(=O)NC(CC(C)C)C1Cc2cccc(OC(C)=O)c2C(=O)O1` (stereo not shown) [IIIa-3-4], the inhibition in vivo at 50 mg/kg was 22%.
Work on `CCCCCCCCC=CCCCCCCCC(=O)NC1CC(=O)OC1C(OC(C)=O)C(=O)NC(CC(C)C)C1Cc2cccc(OC(C)=O)c2C(=O)O1` (stereo not shown) [IIIa-3-5] yielded an inhibition in vivo at 50 mg/kg of 22%.
